Structures are written as SMILES.

The target in the first test is Thromboxane-A synthase (Oryctolagus cuniculus). The test is described as follows: Inhibitory activity against Thromboxane synthetase.
Settings: not given
On to `O=C(O)CCc1ccc(Cc2cccnc2)cc1`, for which the concentration for half-maximal inhibition (IC50) is 210 nM. This counts as sub-micromolar.

Consider `O=C(O)/C=C/c1ccc(Cc2cccnc2)cc1`, for which 10 nM corresponded to half-maximal inhibition (IC50).

Compound `O=C(O)CCCCCCc1cccnc1` yielded a concentration for half-maximal inhibition (IC50) of 68 nM.

For `C/C(=C\c1ccc(Cn2ccnc2)cc1)C(=O)O`, half-maximal inhibition (IC50) was put at 4 nM.

On to `C/C(=C\c1ccc(C(C)c2cccnc2)cc1)C(=O)O` (stereo not drawn), for which half-maximal inhibition (IC50) required 25 nM. Against the preceding compound, the IC50 is about 6.2-fold higher.

As for `C/C(=C/c1ccc(Cc2cccnc2)cc1)C(=O)O`, the IC50 was determined as 3 nM.

In the case of `O=C(O)CCCCCc1cccnc1`, the half-maximal inhibitory concentration (IC50) came out at 86 nM. This IC50 lies about 29-fold higher than the previous one.

With `CC/C(=C\c1ccc(Cc2cccnc2)cc1)C(=O)O`, the 50% inhibitory concentration (IC50) came to 7 nM. Against the preceding compound, the IC50 is about 12-fold lower.

In turn, `O=C(O)/C=C/c1ccc(Cc2cccnc2)s1` came in with a 50% inhibitory concentration (IC50) of 47 nM.

In the case of `O=C(O)CCCCc1ccncc1`, the IC50 was over 1000 nM.

`C/C(=C\C(=O)O)c1ccc(Cc2cccnc2)cc1` returned an IC50 of 56 nM.

On to `O=C(O)CCCCn1ccnc1`, for which the IC50 is over 1000 nM.

`O=C(O)/C(Br)=C/c1ccc(Cc2cccnc2)cc1` had a half-inhibitory concentration (IC50) of 5 nM. This lies in the single-digit nanomolar range.

Turning to `CC(Cc1ccc(Cc2cccnc2)cc1)C(=O)O` (stereo not drawn), the half-maximal inhibitory concentration (IC50) is 20 nM.

`O=C(O)CCCCCCc1ccncc1` yielded a concentration for half-maximal inhibition (IC50) of over 1000 nM.

On to `O=C(O)CCCCCc1ccncc1`, for which the 50% inhibitory concentration (IC50) was over 1000 nM.

On to `C/C(=C\c1ccc(Cc2cccnc2)s1)C(=O)O`, for which the half-maximal inhibitory concentration (IC50) stood at 12 nM.

Compound `O=C(O)CCCCCCCc1cccnc1` showed a concentration for half-maximal inhibition (IC50) of 76 nM.

For the compound `O=C(O)CCCCc1cccnc1`, the half-maximal inhibitory concentration (IC50) stood at 500 nM.

`O=C(O)CCCCCn1ccnc1` came in with a concentration for half-maximal inhibition (IC50) of over 1000 nM.

For the compound `C/C(=C\C(=O)O)c1ccc(Cc2cccnc2)c(C)c1`, the IC50 was 18 nM.

Take `C/C(=C\c1ccc(Cc2ccncc2)cc1)C(=O)O`: the half-maximal inhibitory concentration (IC50) is over 1000 nM.

Consider `O=C(O)CCCCCCCc1ccncc1`, for which the IC50 is over 1000 nM.

Another test deals with Thromboxane-A synthase (Oryctolagus cuniculus).
Test: not given
The conditions noted are these: at 100 µM.
In turn, `c1ncncn1` registered an inhibition of 11%.

In turn, `c1ccnnc1` displayed an inhibition of 16.8%.

Turning to `c1cn[nH]c1`, the inhibition was determined as 8.9%.

`c1cscn1` registered an inhibition of 17.3%.

A further test deals with T1, Thromboxane-A synthase (Homo sapiens) (UniProt P24557).
T1 sequence (whole entry): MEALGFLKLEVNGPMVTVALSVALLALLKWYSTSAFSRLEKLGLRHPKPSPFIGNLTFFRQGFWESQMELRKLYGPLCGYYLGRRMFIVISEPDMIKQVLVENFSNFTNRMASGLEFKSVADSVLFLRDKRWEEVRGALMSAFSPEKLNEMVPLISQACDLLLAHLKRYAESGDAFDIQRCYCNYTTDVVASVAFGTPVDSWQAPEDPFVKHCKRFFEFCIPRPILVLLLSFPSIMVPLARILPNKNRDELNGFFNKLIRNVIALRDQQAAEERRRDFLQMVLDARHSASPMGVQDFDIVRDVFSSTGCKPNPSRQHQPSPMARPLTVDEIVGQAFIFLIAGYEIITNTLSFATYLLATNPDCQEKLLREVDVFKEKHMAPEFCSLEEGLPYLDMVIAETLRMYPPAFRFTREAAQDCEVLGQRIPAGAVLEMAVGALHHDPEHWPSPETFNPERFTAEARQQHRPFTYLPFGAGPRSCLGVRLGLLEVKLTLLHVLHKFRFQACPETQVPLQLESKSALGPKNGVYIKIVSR
Nature of the test: Inhibition of Thromboxane synthetase at 100 µM.
Settings: not given
On to `c1cncnc1`, for which the inhibition worked out at 12%.

Source of the values: ChEMBL document CHEMBL1121724 (J Med Chem, 1981).
